The values below are quoted from earlier work in patent US20050266098A1, “Composition for treatment of a hydrofluoric acid burn” (priority 2004, published 2005).

The test system of data set [1] is hydrofluoric acid injury. The following applies: soaks as source of calcium ions.
For data set [2] the following is noted: 18° C.

Consider `CC(=O)[O-].CC(=O)[O-].[Ca+2]` [Calcium acetate], for which, in data set [1], the “epidermal response resulting from the treatment” value is reported as “negative epidermal response”.

Take `CC(=O)CCC(=O)O` [Levulinic acid]: in data set [2], the pKa (as a rule, the pH at which an ionisable group is half protonated) is reported as 4.64. In data set [2] (98% aqueous solution), the pH was 6.2.
